# Results published in article PMC12667485, “Molecular Chain Elongation Mechanism for n‐Caproate Biosynthesis by Megasphaera Hexanoica” (Advanced Science, 2025).
# Target: T1, MhTHL (Megasphaera hexanoica, UniProt A0A848BQU5, C88S)
# T1 construct: gene HF872_02440; tetramerization motif
# Experiment: X-ray crystal structure, […] Å
# Format: binding
# Settings: crystals soaked in 25 mM hexanoyl-CoA for 5 min, pH 7.5; the bound ligand is deacylated CoA; active site
# T1 sequence (A0A848BQU5 entry or part of it C88S): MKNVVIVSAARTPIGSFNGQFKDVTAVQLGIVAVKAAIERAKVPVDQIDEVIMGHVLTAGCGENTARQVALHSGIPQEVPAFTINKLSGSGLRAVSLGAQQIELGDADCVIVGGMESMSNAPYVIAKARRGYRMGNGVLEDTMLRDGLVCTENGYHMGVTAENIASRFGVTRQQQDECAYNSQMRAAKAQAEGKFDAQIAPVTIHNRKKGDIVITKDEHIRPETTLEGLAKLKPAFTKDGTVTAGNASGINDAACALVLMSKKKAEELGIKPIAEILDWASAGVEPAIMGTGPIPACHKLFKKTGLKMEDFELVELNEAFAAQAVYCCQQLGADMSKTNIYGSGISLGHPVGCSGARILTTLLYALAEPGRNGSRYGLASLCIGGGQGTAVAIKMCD
smiles,measurement,value
CC(C)(COP(=O)(O)OP(=O)(O)OC[C@H]1O[C@@H](n2cnc3c(N)ncnc32)[C@H](O)[C@@H]1OP(=O)(O)O)[C@@H](O)C(=O)NCCC(=O)NCCS [CoA],"X-ray crystal structure, 1.64 Å",a deacylated CoA molecule was bound to MhTHL in the mF observed‐DF calculated electron density map
